Laboratory results: ChEMBL document CHEMBL1201862, “PubChem BioAssay data set” (2004)
Calls of active or inactive are those of the source.

Experiments:
Mucolipin-3 = biological target: T1, Mucolipin-3 (Homo sapiens, UniProt Q8TDD5); experiment: Dose response cell-based high-throughput screening assay for agonists of the transient receptor potential channel ML3 (TRPML3). [Related pubchem assays: 1526, 1424, 1448 ]; format: functional
T1 sequence (Q8TDD5 whole entry): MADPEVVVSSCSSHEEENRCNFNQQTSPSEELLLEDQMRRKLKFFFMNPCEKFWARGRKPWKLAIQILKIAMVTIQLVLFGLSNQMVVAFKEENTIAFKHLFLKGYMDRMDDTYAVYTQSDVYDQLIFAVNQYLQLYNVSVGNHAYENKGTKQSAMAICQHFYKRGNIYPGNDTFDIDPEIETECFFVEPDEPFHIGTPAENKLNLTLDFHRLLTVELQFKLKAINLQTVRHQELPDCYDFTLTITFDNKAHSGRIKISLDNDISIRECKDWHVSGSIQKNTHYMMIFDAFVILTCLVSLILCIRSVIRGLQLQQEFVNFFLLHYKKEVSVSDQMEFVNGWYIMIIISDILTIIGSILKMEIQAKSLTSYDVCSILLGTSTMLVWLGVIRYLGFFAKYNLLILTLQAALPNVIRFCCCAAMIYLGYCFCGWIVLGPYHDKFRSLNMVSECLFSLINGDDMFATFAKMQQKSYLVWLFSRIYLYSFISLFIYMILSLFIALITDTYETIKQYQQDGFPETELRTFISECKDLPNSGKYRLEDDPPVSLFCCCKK

Ion channel NompC = Ion channel NompC (Danio rerio, UniProt Q7T1G6); experiment: Fluorescence counterscreen assay for TRPML3 agonists: dose response cell-based high-throughput screening assay to identify agonists of the transient receptor potential channel N1 (TRPN1). [Related pubchem assays: 1526, 1424, 1448 ]; format: functional
Ion channel NompC, sequence (Q7T1G6 whole entry): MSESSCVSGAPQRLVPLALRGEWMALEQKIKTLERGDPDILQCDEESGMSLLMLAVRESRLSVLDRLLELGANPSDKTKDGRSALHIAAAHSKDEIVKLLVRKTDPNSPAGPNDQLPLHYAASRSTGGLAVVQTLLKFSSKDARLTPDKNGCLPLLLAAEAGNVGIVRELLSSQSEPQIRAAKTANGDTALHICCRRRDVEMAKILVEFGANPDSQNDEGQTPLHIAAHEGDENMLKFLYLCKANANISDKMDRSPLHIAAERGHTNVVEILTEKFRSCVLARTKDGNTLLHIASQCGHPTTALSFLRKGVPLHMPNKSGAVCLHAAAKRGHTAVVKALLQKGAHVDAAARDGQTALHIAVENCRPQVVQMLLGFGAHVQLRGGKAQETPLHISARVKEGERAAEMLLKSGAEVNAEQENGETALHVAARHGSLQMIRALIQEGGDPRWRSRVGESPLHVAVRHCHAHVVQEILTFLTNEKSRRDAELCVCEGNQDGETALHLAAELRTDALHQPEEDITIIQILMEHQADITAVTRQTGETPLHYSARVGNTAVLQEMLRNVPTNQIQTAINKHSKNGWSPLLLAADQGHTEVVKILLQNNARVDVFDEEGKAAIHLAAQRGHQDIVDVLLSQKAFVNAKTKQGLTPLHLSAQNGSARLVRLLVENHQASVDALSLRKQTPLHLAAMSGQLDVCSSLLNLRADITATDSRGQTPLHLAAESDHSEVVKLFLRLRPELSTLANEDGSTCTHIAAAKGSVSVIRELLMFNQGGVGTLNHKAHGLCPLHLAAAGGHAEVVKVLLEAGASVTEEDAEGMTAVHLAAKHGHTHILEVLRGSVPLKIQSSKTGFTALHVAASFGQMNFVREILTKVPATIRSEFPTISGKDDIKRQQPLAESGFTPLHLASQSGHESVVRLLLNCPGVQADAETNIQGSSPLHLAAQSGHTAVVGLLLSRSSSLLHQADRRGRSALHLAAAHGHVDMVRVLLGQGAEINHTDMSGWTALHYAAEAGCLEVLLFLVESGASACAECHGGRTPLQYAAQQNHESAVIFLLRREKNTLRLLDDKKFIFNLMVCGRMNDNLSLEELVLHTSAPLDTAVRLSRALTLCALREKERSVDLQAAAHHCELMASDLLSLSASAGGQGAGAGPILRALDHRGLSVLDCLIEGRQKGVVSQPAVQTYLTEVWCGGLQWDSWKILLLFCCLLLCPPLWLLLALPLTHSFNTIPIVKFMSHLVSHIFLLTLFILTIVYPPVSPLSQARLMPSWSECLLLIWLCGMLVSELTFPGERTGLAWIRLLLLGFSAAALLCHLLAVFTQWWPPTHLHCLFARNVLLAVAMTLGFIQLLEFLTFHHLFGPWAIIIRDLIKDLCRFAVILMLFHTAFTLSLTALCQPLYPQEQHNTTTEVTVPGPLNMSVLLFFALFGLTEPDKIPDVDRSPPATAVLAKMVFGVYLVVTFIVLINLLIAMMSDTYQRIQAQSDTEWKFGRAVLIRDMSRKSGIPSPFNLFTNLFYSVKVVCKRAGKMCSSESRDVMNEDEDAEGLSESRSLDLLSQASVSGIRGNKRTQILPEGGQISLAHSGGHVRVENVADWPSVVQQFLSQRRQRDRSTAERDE

[1] = biological target: NAD-dependent protein deacylase sirtuin-5, mitochondrial (Homo sapiens, UniProt Q9NXA8); experiment: sirtuin-5 deacylation blockers, concentration series – biochemical, fluorescence imaging, cherry-pick, set 5, dose response (AID 720591);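 also: desuccinylation of succinyl peptide AMC substrate read as fluorescence after trypsin release; potency of inhibitors that lower fluorescence and may act on trypsin instead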
NAD-dependent protein deacylase sirtuin-5, mitochondrial, sequence (Q9NXA8 whole entry): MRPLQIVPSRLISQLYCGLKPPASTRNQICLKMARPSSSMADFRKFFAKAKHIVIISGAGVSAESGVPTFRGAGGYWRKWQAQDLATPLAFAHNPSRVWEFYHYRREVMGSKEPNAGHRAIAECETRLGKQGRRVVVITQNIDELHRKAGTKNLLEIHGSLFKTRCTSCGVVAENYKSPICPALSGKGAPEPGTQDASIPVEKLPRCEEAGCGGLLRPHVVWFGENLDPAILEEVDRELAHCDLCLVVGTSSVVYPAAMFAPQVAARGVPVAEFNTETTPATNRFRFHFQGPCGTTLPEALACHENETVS

[2] = biological target: T2, Tyrosine-protein phosphatase non-receptor type 7 (Homo sapiens, UniProt P35236); experiment: HePTP tyrosine phosphatase activity blockers – biochemical, absorbance, leukemia target, primary screen (AID 521); format: functional
T2 sequence (P35236 whole entry): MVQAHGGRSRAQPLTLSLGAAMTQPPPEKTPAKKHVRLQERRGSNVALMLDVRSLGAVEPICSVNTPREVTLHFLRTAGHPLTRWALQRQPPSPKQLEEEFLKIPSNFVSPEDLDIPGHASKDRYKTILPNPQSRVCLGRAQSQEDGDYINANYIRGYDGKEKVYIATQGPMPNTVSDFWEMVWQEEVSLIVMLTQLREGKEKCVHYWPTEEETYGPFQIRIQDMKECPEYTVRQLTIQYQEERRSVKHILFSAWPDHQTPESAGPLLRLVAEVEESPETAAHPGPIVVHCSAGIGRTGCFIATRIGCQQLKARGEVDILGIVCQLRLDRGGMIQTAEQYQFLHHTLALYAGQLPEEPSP

[3] = A Cell Based Secondary Assay To Explore Cytotoxicity of Compounds that Sensitize Mycobacterium Tuberculosis to Beta-Lactam Antibiotics.; format: functional
HeLa = experiment: viability loss in HeLa cells – cell-based, 24 h, cherry-picked samples, cytotoxicity control, dose response (AID 504726); format: functional; conditions: Homo sapiens;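 also: potency for cytotoxicity as loss of luminescence signal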
[4] = biological target: T3, Heat shock factor protein 1 (Mus musculus, UniProt P38532); experiment: decrease of HSF1-responsive luciferase luminescence – cell-based, NIH3T3, dose retest, confirmation (AID 2382); format: functional;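 also: NIH3T3 fibroblasts with HSF1-driven luciferase reporter stressed by proteasome inhibitor MG132; luminescence from HSF1-driven luciferase expression after 8 hours of MG132 stress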
T3 sequence (P38532 whole entry): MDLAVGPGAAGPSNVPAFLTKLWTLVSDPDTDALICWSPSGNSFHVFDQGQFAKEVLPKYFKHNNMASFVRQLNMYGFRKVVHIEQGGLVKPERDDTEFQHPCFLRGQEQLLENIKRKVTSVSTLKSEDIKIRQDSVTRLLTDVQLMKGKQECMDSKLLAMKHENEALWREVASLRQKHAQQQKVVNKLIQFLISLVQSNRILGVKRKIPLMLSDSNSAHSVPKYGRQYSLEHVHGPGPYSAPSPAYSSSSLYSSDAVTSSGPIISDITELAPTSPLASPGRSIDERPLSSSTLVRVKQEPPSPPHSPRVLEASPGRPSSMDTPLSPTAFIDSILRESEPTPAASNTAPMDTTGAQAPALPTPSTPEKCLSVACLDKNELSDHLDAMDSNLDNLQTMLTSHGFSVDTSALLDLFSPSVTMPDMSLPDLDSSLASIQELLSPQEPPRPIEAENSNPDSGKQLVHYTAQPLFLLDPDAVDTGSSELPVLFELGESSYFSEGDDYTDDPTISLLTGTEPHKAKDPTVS

[5] = biological target: T4, Lysosomal acid glucosylceramidase (Homo sapiens, UniProt P04062); experiment: Dose response cell-based high throughput screening assay to identify enhancers of beta-glucosidase activity. [Related pubchem assays: 784 ]; format: functional
T4 sequence (P04062 whole entry): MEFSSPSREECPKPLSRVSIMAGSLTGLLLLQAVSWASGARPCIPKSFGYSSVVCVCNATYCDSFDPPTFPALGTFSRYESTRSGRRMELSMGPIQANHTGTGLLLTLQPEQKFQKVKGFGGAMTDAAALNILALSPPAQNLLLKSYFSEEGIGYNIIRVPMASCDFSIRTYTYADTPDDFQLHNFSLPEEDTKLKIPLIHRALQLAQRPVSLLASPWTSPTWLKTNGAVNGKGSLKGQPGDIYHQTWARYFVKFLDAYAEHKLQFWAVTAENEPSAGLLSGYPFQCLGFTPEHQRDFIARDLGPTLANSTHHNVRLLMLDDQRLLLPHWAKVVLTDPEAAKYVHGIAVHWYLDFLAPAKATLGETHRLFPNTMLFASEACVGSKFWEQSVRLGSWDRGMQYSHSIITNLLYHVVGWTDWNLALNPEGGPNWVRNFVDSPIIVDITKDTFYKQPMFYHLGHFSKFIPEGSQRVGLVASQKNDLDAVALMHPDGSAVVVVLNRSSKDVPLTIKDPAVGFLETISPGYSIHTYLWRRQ

Cytochrome P450 2C9 = Cytochrome P450 2C9 (Homo sapiens, UniProt P11712)
Cytochrome P450 3A4 = Cytochrome P450 3A4 (Homo sapiens, UniProt P08684);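 also: CYP3A4 tested as one member of a cytochrome P450 panel screen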
[6] = biological target: Peroxisome proliferator-activated receptor gamma/Nuclear receptor coactivator 3 (Homo sapiens, UniProt P37231); format: functional;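 also: agonist potency for raising coactivator recruitment to the receptor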
[7] = biological target: Peroxisome proliferator-activated receptor gamma/Nuclear receptor coactivator 2 (Homo sapiens, UniProt P37231); format: functional;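 also: agonist potency for raising coactivator recruitment to the receptor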
[8] = biological target: Peroxisome proliferator-activated receptor gamma/Nuclear receptor coactivator 1 (Homo sapiens, UniProt P37231); format: functional;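 also: agonist potency as compounds enhance coactivator SRC-1 recruitment to PPARgamma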
fMet-Leu-Phe receptor = biological target: T5, fMet-Leu-Phe receptor (Homo sapiens, UniProt P21462); experiment: formyl peptide receptor binders – dose response (AID 519); format: functional
T5 sequence (P21462 whole entry): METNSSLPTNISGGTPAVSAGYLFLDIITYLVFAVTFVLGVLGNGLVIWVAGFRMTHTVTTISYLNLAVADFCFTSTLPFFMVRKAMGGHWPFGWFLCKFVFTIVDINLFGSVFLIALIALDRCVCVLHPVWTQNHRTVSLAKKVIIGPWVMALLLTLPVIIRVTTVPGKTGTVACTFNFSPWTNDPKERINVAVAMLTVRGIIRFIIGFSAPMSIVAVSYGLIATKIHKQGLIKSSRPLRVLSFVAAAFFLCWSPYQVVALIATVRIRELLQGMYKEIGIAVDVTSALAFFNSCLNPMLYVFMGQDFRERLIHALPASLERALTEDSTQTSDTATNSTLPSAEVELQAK

[9] = biological target: T6, Voltage-gated N-type calcium channel alpha-1B subunit/Amyloid beta A4 precursor protein-binding family A member 1 (Homo sapiens, UniProt Q00975+Q02410); format: protein assay
T6 sequence (Q00975 whole entry): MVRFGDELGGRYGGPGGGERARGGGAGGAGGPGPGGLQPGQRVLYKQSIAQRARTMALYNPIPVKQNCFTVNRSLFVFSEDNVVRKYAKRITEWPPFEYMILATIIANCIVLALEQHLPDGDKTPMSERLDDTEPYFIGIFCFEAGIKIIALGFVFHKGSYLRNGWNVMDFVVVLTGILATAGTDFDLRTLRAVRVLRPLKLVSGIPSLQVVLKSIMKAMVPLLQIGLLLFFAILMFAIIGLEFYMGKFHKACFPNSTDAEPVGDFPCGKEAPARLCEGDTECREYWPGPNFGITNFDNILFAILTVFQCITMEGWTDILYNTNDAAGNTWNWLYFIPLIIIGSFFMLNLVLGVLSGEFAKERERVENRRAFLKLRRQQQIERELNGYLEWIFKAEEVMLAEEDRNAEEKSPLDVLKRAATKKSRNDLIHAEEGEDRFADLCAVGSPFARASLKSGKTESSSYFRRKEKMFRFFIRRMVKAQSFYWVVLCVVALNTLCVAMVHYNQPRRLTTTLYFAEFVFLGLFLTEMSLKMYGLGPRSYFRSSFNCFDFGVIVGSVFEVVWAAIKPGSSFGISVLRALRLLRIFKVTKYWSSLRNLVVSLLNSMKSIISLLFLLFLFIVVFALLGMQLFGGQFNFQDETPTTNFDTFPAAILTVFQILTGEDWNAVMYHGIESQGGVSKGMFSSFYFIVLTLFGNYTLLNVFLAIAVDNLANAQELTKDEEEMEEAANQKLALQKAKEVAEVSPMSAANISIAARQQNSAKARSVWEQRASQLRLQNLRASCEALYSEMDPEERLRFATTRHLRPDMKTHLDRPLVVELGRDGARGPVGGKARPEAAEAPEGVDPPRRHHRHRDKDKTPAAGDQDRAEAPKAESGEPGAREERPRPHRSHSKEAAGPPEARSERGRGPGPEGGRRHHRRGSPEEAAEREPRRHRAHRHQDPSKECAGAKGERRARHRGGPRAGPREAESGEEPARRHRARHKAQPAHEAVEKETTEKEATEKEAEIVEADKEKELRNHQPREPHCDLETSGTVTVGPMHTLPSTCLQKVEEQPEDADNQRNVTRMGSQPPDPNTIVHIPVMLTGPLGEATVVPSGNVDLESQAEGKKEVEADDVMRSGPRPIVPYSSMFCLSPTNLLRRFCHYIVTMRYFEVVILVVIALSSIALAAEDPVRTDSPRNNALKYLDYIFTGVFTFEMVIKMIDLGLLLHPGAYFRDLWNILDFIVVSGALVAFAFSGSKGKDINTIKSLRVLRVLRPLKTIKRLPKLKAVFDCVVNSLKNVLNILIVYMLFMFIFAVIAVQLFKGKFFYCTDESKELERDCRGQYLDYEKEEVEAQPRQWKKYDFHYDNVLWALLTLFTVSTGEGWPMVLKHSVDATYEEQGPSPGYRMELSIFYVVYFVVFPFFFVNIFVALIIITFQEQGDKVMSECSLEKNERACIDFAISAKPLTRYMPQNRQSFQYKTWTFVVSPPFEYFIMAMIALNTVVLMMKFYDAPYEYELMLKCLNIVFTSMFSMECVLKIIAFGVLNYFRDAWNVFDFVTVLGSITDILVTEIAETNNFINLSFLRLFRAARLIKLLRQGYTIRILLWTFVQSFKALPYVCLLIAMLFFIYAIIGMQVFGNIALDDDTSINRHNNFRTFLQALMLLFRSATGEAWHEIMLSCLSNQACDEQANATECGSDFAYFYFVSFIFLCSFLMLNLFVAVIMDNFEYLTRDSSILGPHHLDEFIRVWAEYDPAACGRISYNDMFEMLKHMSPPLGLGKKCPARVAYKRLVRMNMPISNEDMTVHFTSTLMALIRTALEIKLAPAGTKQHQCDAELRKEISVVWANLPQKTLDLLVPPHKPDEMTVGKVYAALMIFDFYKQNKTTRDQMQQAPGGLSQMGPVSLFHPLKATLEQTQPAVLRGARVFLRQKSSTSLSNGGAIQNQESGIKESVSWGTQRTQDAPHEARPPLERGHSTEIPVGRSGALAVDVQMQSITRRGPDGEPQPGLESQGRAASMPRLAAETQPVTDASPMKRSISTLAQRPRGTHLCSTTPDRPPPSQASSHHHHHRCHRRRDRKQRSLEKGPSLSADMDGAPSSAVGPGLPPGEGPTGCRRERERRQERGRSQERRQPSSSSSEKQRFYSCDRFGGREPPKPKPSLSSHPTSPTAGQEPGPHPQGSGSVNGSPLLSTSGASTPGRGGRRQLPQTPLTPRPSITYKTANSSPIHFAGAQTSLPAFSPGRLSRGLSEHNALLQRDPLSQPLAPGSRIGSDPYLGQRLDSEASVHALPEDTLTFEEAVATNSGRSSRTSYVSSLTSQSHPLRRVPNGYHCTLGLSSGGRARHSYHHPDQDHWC
T6 sequence (Q02410 whole entry): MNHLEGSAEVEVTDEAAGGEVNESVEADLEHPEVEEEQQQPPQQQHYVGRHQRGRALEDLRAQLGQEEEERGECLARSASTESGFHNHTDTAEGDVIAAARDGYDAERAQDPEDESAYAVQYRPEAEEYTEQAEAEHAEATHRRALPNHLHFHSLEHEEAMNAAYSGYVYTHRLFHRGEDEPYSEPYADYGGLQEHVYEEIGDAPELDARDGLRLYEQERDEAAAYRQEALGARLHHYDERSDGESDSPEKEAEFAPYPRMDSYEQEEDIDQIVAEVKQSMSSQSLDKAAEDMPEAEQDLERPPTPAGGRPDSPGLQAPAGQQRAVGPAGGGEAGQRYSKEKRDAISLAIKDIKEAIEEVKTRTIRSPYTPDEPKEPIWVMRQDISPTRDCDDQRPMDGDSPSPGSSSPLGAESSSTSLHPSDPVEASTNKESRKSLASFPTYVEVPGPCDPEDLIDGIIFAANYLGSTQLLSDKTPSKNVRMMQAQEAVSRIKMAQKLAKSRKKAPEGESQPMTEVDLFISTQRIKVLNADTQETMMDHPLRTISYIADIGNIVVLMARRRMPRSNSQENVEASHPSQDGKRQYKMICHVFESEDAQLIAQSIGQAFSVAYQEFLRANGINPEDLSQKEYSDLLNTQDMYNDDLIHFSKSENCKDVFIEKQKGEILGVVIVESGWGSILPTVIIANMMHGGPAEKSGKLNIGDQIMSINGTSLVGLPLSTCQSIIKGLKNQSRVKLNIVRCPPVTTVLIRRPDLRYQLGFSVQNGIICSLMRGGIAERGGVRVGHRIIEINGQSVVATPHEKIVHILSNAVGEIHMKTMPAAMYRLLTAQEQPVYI

[10] = biological target: T6, Voltage-gated N-type calcium channel alpha-1B subunit/Amyloid beta A4 precursor protein-binding family A member 1; format: protein assay; remark: listed apart in the source
[11] = viability of uninfected HEp-2 cells – cell-based, HTS, cytotoxicity control for RSV inhibitor project, dose response (AID 2410); format: functional; conditions: human respiratory syncytial virus
[12] = biological target: Disintegrin and metalloproteinase domain-containing protein 17 (Homo sapiens, UniProt P78536); experiment: inhibition of ADAM17 substrate cleavage – biochemical, quenched FRET substrate, counter-screen for ADAM10 exosite inhibitor project, dose response (AID 743253)
[13] = biological target: T7, COUP transcription factor 2 (Homo sapiens, UniProt P24468); experiment: Luminescence-based cell-based high throughput dose response assay to identify inhibitors of COUP-TFII (NR2F2).; format: functional;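 also: HEK293 cells transiently cotransfected with COUP-TFII expression vector and reporter; luciferase reporter luminescence driven by COUP-TFII from the pX2-168 reporter plasmid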
T7 sequence (P24468 whole entry): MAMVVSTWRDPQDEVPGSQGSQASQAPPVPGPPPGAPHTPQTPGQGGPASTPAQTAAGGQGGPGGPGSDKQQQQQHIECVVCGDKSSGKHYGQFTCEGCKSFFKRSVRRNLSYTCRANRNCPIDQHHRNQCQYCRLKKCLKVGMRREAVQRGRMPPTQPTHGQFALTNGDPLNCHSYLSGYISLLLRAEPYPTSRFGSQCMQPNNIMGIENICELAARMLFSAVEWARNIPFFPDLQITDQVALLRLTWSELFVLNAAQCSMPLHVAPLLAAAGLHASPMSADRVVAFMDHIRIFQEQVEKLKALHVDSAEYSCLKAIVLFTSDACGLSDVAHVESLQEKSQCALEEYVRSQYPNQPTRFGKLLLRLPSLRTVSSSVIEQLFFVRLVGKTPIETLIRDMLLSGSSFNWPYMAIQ

[14] = potency of ADAM10 substrate cleavage blockers – biochemical, QFRET, dose response (AID 743254);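 also: ADAM10 enzyme with the DM2 quenched FRET peptide as substrate; EDANS fluorescence gain as the protease cuts the substrate; inhibitor potency against ADAM10 proteolytic activity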
[15] = biological target: Heat shock protein HSP 90-alpha (Homo sapiens, UniProt P07900); format: functional, organism-based
Vero = experiment: viability of Vero cells under compound – cytotoxicity control for flavivirus capping enzyme inhibitors (AID 588742); format: functional; conditions: Chlorocebus sabaeus
[16] = biological target: Protein-tyrosine kinase 2-beta (Homo sapiens, UniProt Q14289);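 also: potency of inhibitors of PYK2 kinase phosphorylation of poly-GT substrate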
[17] = Dd2 parasite growth inhibition in erythrocytes – SYBR Green, dry powder samples, set 9, dose response (AID 1159568); format: functional, cell-based

With `O=S(=O)(Nc1ccccc1N1CCCCC1)c1ccc(F)cc1` the EC50 (Mucolipin-3) was 3.27 µM (active) and the EC50 (Ion channel NompC) was > 29.9 µM (not active).

In the case of `COc1ccc(C(=O)C2=C(O)C(=O)N(CCCN3CCOCC3)C2c2ccc(OC)cc2)cc1` (centres undefined), the AC50 [1] is reported as > 30 µM (inactive).

With `CC1(C)CC(=O)c2cnc(NC(=O)c3ccco3)nc2C1` the IC50 [2] was > 100 µM (not active).

For `CCN1C(=O)[C@@H]2[C@@H](c3ccc(-c4ccc(Cl)c(Cl)c4)c(OC)c3)N3CCC[C@@]3(C(=O)OC)[C@@H]2C1=O`, the CC50 [3] was 30.4 µM (active).

In the case of `CCOC(=O)c1cnc(SC)nc1Sc1ccc(Cl)cc1Cl`, the AC50 (HeLa) is reported as 261 µM (active).

With `Cc1cc(C(C)(C)C)oc1C(=O)N(CC(=O)NC1CCCC1)c1c(C)cccc1C` the EC50 (Mucolipin-3) was 2.54 µM (active), the EC50 [4] was > 195 µM (not active) and the EC50 (Ion channel NompC) was > 29.9 µM (not active).

For `CC(C)NC(=O)c1cccc(Br)c1`, the AC50 [1] was > 30 µM (inactive).

With `COC(=O)c1ccc(NC2c3ncccc3C(=O)N2Cc2cccs2)cc1` (centres undefined) the IC50 (cells) was 5.98 µM (active).

For `CCOc1cc(S(=O)(=O)N2CCCCCC2)ccc1F`, the EC50 (Mucolipin-3) was > 29.9 µM (not active) and the EC50 (Ion channel NompC) was > 29.9 µM (not active).

With `O=C(CSc1nnc2c(n1)[nH]c1ccc(F)cc12)OCc1ccccc1` the EC50 [5] was > 50 µM (not active), the AC50 (Cytochrome P450 2C9) was 0.0708 µM (inconclusive) and the AC50 (Cytochrome P450 3A4) was 8.91 µM (inconclusive).

In the case of `COCc1c(C(=O)OC)nnn1-c1ccccc1`, the EC50 [6] is reported as > 79.4 µM (not active), the EC50 [7] is reported as > 79.4 µM (not active) and the EC50 [8] is reported as > 79.4 µM (not active).

With `COc1ccc(CC(=O)Nc2ccc(-c3nnc(-c4ccc(C)cc4)o3)cc2)cc1` the Ki (fMet-Leu-Phe receptor) was > 66.7 µM (inactive), the IC50 [9] was 14.4 µM (active) and the IC50 [2] was > 100 µM (not active). For the same compound, the IC50 [10] was > 50 µM (inactive).

In the case of `CNS(=O)(=O)c1ccc(OC)c(-c2nnc3c4ccccc4c(C)nn23)c1`, the IC50 (cells) is reported as 26.5 µM (active).

With `Cc1ccc(S(=O)(=O)Nc2cc(C(=O)O)ccc2N2CCCCC2)cc1` the EC50 [5] was > 50 µM (not active).

With `Cc1ccc(C)c(C(=O)C2=C(O)C(=O)N(CCCn3ccnc3)C2c2ccncc2)c1` (centres undefined) the Ki (fMet-Leu-Phe receptor) was > 66.7 µM (inactive) and the EC50 [5] was > 50 µM (not active).

In the case of `COC(=O)C1=C(c2ccc(F)cc2F)C[C@@H]2CC[C@H]1N2C(=O)N1CCC(C)CC1`, the IC50 (cells) is reported as 41.2 µM (active) and the CC50 [11] is reported as 34.2 µM (active).

For `CC(C)(C)OC(=O)N1CCC[C@H]1c1nnc(SCc2cccc(Cl)c2)o1`, the AC50 [1] was > 30 µM (inactive).

In the case of `O=C(/C=C/c1ccc([N+](=O)[O-])cc1)c1ccccc(=O)c1O`, the IC50 [12] is reported as 11.8 µM (inactive), the IC50 [13] is reported as 9.51 µM (active) and the IC50 [14] is reported as 8.35 µM (active). The AC50 [15] was 1.54 µM (active) and the CC50 (Vero) was 1.87 µM (active).

In the case of `CO/C(O)=C1\C(C)=NC2=C(C(=O)CC(c3cccs3)C2)C1c1ccsc1` (centres undefined), the IC50 [16] is reported as > 69.5 µM (not active).

For `Cc1ccnn1CC(=O)N/N=C/c1ccc([N+](=O)[O-])s1`, the CC50 [3] was 36 µM (active).

For `C[C@H]1CCCCO[C@@H](CN(C)S(=O)(=O)c2ccc(F)cc2)[C@@H](C)CN([C@@H](C)CO)C(=O)c2cc(N(C)C)ccc2O1`, the AC50 [17] was 2.54 µM (active).

For `N#C[C@H]1N[C@H](CO)[C@H]1c1ccc(C#CC2CCCCC2)cc1`, the AC50 [17] was 12.9 µM (active).
